GI50 and TGI data for 10 compounds are collected here from PubChem BioAssay (NCI).

Molecules are shown by their SMILES.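 All cell lines were grown in 96-well plates and treated with compound for 48 hours. At the GI50, growth is halved. Definition used: TGI = concentration required for complete inhibition of growth.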

Test in all cases: growth of human tumour cells (NCI), 48 h
Assay [1] relates to NCI-H23 lung.
The subject of assay [2] is SW-620 colon.
In assay [3] the test system is MALME-3M melanoma.
Assay [4] deals with SNB-75 CNS.
Assay [5] concerns SR leukemia.
Assay [6] has as its system TK-10 renal.
For assay [7], the system named is A549 NSCLC.
For assay [8], the system named is NCI-H522 lung.

Take `O=C(Nc1cccc2[nH]c(C(F)(F)F)nc12)c1cc(Cl)ccc1Cl`: the GI50 in assay [1] is 2.81 µM; in assay [2] it was 3.6 µM; in assay [3], 2.85 µM; in assay [4], 2.06 µM; in assay [5] it was 3.04 µM; in assay [6], 4.17 µM. Moreover, the results for the GI50 in assay [7] and in assay [8] were 3.45 µM and 2.27 µM, respectively. Besides, the TGI in assay [1] came out at 7.78 µM; in assay [2] it was 14.8 µM; in assay [3], 8.61 µM; in assay [4], 8.06 µM; in assay [5], 8.96 µM; in assay [6], 36.2 µM. Also, the results for the TGI in assay [7] and in assay [8] were above 100 µM and 6.2 µM, respectively.
Consider `CC(=O)c1ccc2c(c1)N(CCCN1CCN(CCO)CC1)c1ccccc1S2`, for which the GI50 in assay [1] is 5.68 µM; in assay [2], 1.82 µM; in assay [3], 1.75 µM; in assay [4], 1.53 µM; in assay [5], 2.68 µM; in assay [6], 1.69 µM. Besides, the GI50 in assay [7] is 3.3 µM; in assay [8] it was 1.67 µM. Further, the TGI is 18.9 µM in assay [1]; 3.61 µM in assay [2]; 3.62 µM in assay [3]; 3.51 µM in assay [4]; 6.92 µM in assay [5]; 3.6 µM in assay [6]. Further, the TGI in assay [7] was 11.5 µM; in assay [8], 3.64 µM.
For `C=C1C(=O)O[C@H]2[C@H]1CC/C(Cn1cc(-c3ccc(N)cc3)nn1)=C\CC[C@@]1(C)O[C@@H]21`, the GI50 in assay [1] was 2.49 µM; in assay [2] it was 2.16 µM; in assay [3], 2.18 µM; in assay [4], 4.98 µM; in assay [5], 0.702 µM; in assay [6] it was 2.25 µM. The GI50 in assay [7] was 11.9 µM; in assay [8], 1.37 µM. Also, the TGI in assay [1] was 7.72 µM; in assay [2], 6.01 µM; in assay [3], 5.42 µM; in assay [4] it was 22.4 µM; in assay [5], above 100 µM; in assay [6], 5.43 µM. Also, the TGI in assay [7] turned out to be 28.1 µM; in assay [8] it was 3.07 µM.
Take `CCCc1nc(Cl)nc(Cl)c1Cl`: the TGI in assay [1] amounted to 2.04 µM; in assay [2], 2.17 µM; in assay [3], 2.46 µM; in assay [4], 6 µM; in assay [5], 0.529 µM; in assay [6], 4.71 µM. The TGI in assay [7] came out at 6.59 µM; in assay [8], 1.26 µM.
In the case of `COc1ccc(-c2nc(-c3nc4cc(Cl)c(F)cc4[nH]3)c3ccccn23)cc1`, the GI50 in assay [1] is 29.1 µM; in assay [2] it was 5.38 µM; in assay [3], 20 µM; in assay [4] it was 5.31 µM; in assay [5], 3.87 µM; in assay [6], 5.25 µM. In addition, the figures for the GI50 in assay [7] and in assay [8] were 4.04 µM and 4.39 µM, respectively. In addition, the TGI in assay [1], in assay [2], in assay [3], in assay [4], in assay [5] and in assay [6] was above 100 µM throughout. Also, the TGI in assay [7] and in assay [8] was above 100 µM in each case.
In the case of `Cn1cc(-c2cc(-c3cn(C)c4ccc(Cl)cc34)[nH]n2)c2cc(Cl)ccc21`, the GI50 is 2.48 µM in assay [1]; 3.52 µM in assay [2]; 9.64 µM in assay [3]; 4.25 µM in assay [4]; 2.36 µM in assay [5]; 5.16 µM in assay [6]. The GI50 in assay [7] is 3.24 µM; in assay [8] it was 1.75 µM. In addition, the TGI in assay [1] is 7.69 µM; in assay [2], 14.6 µM; in assay [3] it was 67.4 µM; in assay [4] it was 30.6 µM; in assay [5], 7.71 µM; in assay [6], 23.7 µM. Moreover, the TGI in assay [7] was 14.4 µM; in assay [8], 3.84 µM.
Turning to `Nc1nc(N)c2cc(Sc3ccc4ccccc4c3)ccc2n1`, the TGI was 10.2 µM in assay [1]; 1.91 µM in assay [2]; 2.86 µM in assay [3]; 5.89 µM in assay [4]; 5 µM in assay [5]; 6.33 µM in assay [6]. Further, the figures for the TGI in assay [7] and in assay [8] were 12 µM and 3.36 µM, respectively. Besides, the GI50 in assay [3] is 1.29 µM; in assay [5] it was 0.805 µM.
For the compound `CCSc1ccc([C@@H]2[C@@H](O)C(=O)N2c2cc(OC)c(OC)c(OC)c2)cc1`, the GI50 in assay [1] is 0.0456 µM; in assay [2], below 0.0121 µM; in assay [3] it was 15.8 µM; in assay [4], below 0.011 µM; in assay [5] it was below 0.01 µM; in assay [6] it was 17.7 µM. Further, the GI50 is below 0.0159 µM in assay [7] and below 0.01 µM in assay [8]. For the same compound, the TGI in assay [1] was 61 µM; in assay [2], above 100 µM; in assay [3] it was 50.4 µM; in assay [4], 65.1 µM; in assay [5], 17.4 µM; in assay [6] it was 84.1 µM. Further, the TGI in assay [7] was 80.6 µM; in assay [8], below 0.0119 µM.
Regarding `COc1ccc2c(c1)C(=O)/C(=C/c1cccc(OCC(=O)Nc3nc(C)c(C)s3)c1)O2`, the GI50 in assay [1] is 0.0547 µM; in assay [2] it was 0.499 µM; in assay [3], 0.322 µM; in assay [4], 0.0115 µM; in assay [5], 0.0184 µM; in assay [6], 1.03 µM. Also, the GI50 in assay [7] was 0.19 µM; in assay [8] it was 0.0517 µM. Besides, the TGI in assay [1] was 0.715 µM; in assay [2], 1.86 µM; in assay [3], 1.03 µM; in assay [4], 0.037 µM; in assay [5], 0.0364 µM; in assay [6] it was 2.8 µM. The TGI in assay [7] worked out at 2.41 µM; in assay [8], 0.107 µM.
Take `C/C(=C(/c1ccccc1)c1ccc(OCC(O)CNCCN2CCOCC2)cc1)c1ccccc1` (stereo unspecified): the GI50 in assay [1] was 3.87 µM; in assay [2], 1.77 µM; in assay [3], 1.62 µM; in assay [4], 2.68 µM; in assay [5] it was 1.66 µM; in assay [6], 2.69 µM. The GI50 was 3.99 µM in assay [7] and 2.22 µM in assay [8]. Further, the TGI was 14.5 µM in assay [1]; 3.36 µM in assay [2]; 3.04 µM in assay [3]; 15.6 µM in assay [4]; 4.02 µM in assay [5]; 7.93 µM in assay [6]. Moreover, the TGI was found to be 15.6 µM in assay [7] and 6.18 µM in assay [8].
